# Results published in PubChem BioAssay (NCI).
#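 Method: 48-hour compound exposure of cells in 96-well plates, five concentrations, linear interpolation of endpoints. TGI marks complete inhibition of growth.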
# Assays:
# Experiment in all cases: DTP human tumour cell line panel, 48 h
# [1] = system: NCI-H460 lung
# [2] = system: DMS 273 small cell lung
# [3] = system: MALME-3M melanoma
# [4] = system: OVCAR-5 ovarian
# [5] = system: CCRF-CEM leukemia
# [6] = system: MOLT-4 leukemia
# [7] = system: DLD-1 colon
# [8] = system: SK-OV-3 ovarian
# [9] = system: M19-MEL melanoma
# [10] = system: ACHN renal
# [11] = system: SF-295 CNS
# [12] = system: K-562 leukemia
# [13] = system: NCI-H226 lung
# [14] = system: U251 CNS
# [15] = system: IGROV1 ovarian
# [16] = system: CAKI-1 renal
# [17] = system: HT29 colon
# [18] = system: SK-MEL-28 melanoma
# [19] = system: SN12C renal
# [20] = system: UACC-62 melanoma
# [21] = system: KM20L2 colon
# [22] = system: HL-60(TB) leukemia
# [23] = system: EKVX NSCLC
# [24] = system: LXFL 529 NSCLC
# [25] = system: NCI-H23 lung
# [26] = system: DMS 114 small cell lung
# [27] = system: TK-10 renal
# [28] = system: SR leukemia
# [29] = system: HCT-116 colon
# [30] = system: SNB-19 CNS
# [31] = system: HOP-62 NSCLC
# [32] = system: 786-0 renal
# [33] = system: SK-MEL-2 melanoma
# [34] = system: A549 NSCLC
# [35] = system: SW-620 colon
# [36] = system: KM12 colon
# [37] = system: RXF 393 renal
# [38] = system: HOP-18 NSCLC
# [39] = system: HCC-2998 colon
# [40] = system: SF-539 CNS
# [41] = system: COLO 205 colon
# [42] = system: RXF-631 renal
# [43] = system: LOX IMVI melanoma
# [44] = system: HCT-15 colon
# [45] = system: HOP-92 NSCLC
# [46] = system: UACC-257 melanoma
# [47] = system: NCI-H522 lung
# [48] = system: OVCAR-3 ovarian
# [49] = system: SF-268 CNS
# [50] = system: SK-MEL-5 melanoma
# [51] = system: OVCAR-8 ovarian
# [52] = system: SNB-75 CNS
# [53] = system: XF 498 CNS
# [54] = system: RPMI-8226 leukemia
# [55] = system: A498 renal
# [56] = system: M14 melanoma
# [57] = system: SNB-78 CNS
# [58] = system: UO-31 renal
# [59] = system: OVCAR-4 ovarian
structure (smiles),measurement,setting,value
Cn1c(C2CCCc3c2c2ccccc2n3C)cc2ccccc21 (stereo not drawn),TGI,[1],> 318 µM
same,TGI,[2],> 318 µM
same,TGI,[3],> 318 µM
same,TGI,[4],> 318 µM
same,TGI,[5],> 318 µM
same,TGI,[6],> 318 µM
same,TGI,[7],> 318 µM
same,TGI,[8],> 318 µM
same,TGI,[9],> 318 µM
same,TGI,[10],> 318 µM
same,TGI,[11],> 318 µM
same,TGI,[12],> 318 µM
same,TGI,[13],> 318 µM
same,TGI,[14],> 318 µM
same,TGI,[15],> 318 µM
same,TGI,[16],> 318 µM
same,TGI,[17],> 318 µM
same,TGI,[18],> 318 µM
same,TGI,[19],> 318 µM
same,TGI,[20],> 318 µM
same,TGI,[21],> 318 µM
same,TGI,[22],> 318 µM
same,TGI,[23],> 318 µM
same,TGI,[24],> 318 µM
same,TGI,[25],> 318 µM
same,TGI,[26],> 318 µM
same,TGI,[27],> 318 µM
same,TGI,[28],> 318 µM
same,TGI,[29],> 318 µM
same,TGI,[30],> 318 µM
same,TGI,[31],> 318 µM
same,TGI,[32],> 318 µM
same,TGI,[33],> 318 µM
same,TGI,[34],> 318 µM
same,TGI,[35],> 318 µM
same,TGI,[36],> 318 µM
same,TGI,[37],> 318 µM
same,TGI,[38],> 318 µM
same,TGI,[39],> 318 µM
same,TGI,[40],> 318 µM
same,TGI,[41],> 318 µM
same,TGI,[42],> 318 µM
same,TGI,[43],> 318 µM
same,TGI,[44],> 318 µM
same,TGI,[45],299 µM
same,TGI,[46],> 318 µM
same,TGI,[47],142 µM
same,TGI,[48],> 318 µM
same,TGI,[49],> 318 µM
same,TGI,[50],> 318 µM
same,TGI,[51],> 318 µM
CC(C)(C)OC(=O)C1=C(O)C(C(=O)OC(C)(C)C)C23CCCCC12C(C(=O)OC(C)(C)C)C(O)=C3C(=O)OC(C)(C)C (stereo not drawn),TGI,[1],> 100 µM
same,TGI,[2],> 100 µM
same,TGI,[3],> 100 µM
same,TGI,[4],> 100 µM
same,TGI,[5],> 100 µM
same,TGI,[6],> 100 µM
same,TGI,[52],> 100 µM
same,TGI,[7],> 100 µM
same,TGI,[53],> 100 µM
same,TGI,[54],> 100 µM
same,TGI,[8],> 100 µM
same,TGI,[9],> 100 µM
same,TGI,[10],> 100 µM
same,TGI,[11],> 100 µM
same,TGI,[12],> 100 µM
same,TGI,[13],> 100 µM
same,TGI,[14],> 100 µM
same,TGI,[15],> 100 µM
same,TGI,[55],> 100 µM
same,TGI,[16],> 100 µM
same,TGI,[17],> 100 µM
same,TGI,[19],> 100 µM
same,TGI,[20],> 100 µM
same,TGI,[21],> 100 µM
same,TGI,[22],> 100 µM
same,TGI,[23],> 100 µM
same,TGI,[24],> 100 µM
same,TGI,[25],> 100 µM
same,TGI,[26],> 100 µM
same,TGI,[27],> 100 µM
same,TGI,[56],> 100 µM
same,TGI,[28],> 100 µM
same,TGI,[29],> 100 µM
same,TGI,[30],> 100 µM
same,TGI,[31],> 100 µM
same,TGI,[32],> 100 µM
same,TGI,[33],> 100 µM
same,TGI,[34],> 100 µM
same,TGI,[35],> 100 µM
same,TGI,[36],> 100 µM
same,TGI,[37],> 100 µM
same,TGI,[38],> 100 µM
same,TGI,[39],> 100 µM
same,TGI,[40],> 100 µM
same,TGI,[41],> 100 µM
same,TGI,[43],> 100 µM
same,TGI,[44],> 100 µM
same,TGI,[57],> 100 µM
same,TGI,[45],> 100 µM
same,TGI,[58],> 100 µM
same,TGI,[59],> 100 µM
same,TGI,[46],> 100 µM
same,TGI,[47],> 100 µM
same,TGI,[48],> 100 µM
same,TGI,[49],> 100 µM
same,TGI,[50],> 100 µM
same,TGI,[51],> 100 µM
